Results published in US20250197357A1, “PPARG INVERSE AGONISTS AND USES THEREOF” (Flare Therapeutics Inc., priority 2022, published 2025).

Tests used:
[1] = molecular target: T1, PPARG/RXRA LBD heterodimer (Homo sapiens, UniProt P37231); assay: PPARγ-MED1 blockade assay (TR-FRET); format: binding; details: MED1 LxxLL peptide, 80 nM Rosiglitazone, 3 hours
T1 construct: His-TEV-Q203-Y477; Uniprot ID P37231-2; made in house; host or cells: E. coli
T1 sequence (P37231 203-477 isoform P37231-2): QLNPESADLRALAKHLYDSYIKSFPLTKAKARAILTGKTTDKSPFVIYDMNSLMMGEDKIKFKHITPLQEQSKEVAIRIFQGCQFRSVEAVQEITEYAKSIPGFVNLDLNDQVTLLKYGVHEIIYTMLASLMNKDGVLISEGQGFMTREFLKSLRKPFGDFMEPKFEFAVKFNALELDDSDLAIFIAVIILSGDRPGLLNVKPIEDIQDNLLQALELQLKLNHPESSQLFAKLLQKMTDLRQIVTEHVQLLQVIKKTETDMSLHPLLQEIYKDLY
T1 sequence (P19793 228-462 partner limits assumed): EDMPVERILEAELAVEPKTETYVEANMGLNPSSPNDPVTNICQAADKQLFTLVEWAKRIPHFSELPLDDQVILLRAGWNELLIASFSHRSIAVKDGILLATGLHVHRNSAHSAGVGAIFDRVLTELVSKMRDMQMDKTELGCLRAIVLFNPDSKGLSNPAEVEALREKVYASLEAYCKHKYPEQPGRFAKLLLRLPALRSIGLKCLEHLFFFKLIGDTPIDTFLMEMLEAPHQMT
Experimental: Compound potency (IC50) and maximal extent of MED1 repulsion to PPARG were assessed a TR-FRET binding assay measuring association of a biotinylated MED1 LxxLL peptide (Biotin—[…]-amide) to PPARG/RXRA LBD heterodimer. Specifically, a 20 microliters of TR-FRET master mix consisting of 2 nM WT PPARG LBD (e. coli expressed, His-TEV-Q203-Y477; Uniprot ID P37231-2), 2 nM WT RXRA LBD (e. coli expressed, Flag-TEV-E228-T462; […]. Mixtures were incubated for 3 hours and read in an EnVision plate reader (Perkin Elmer) with Ex/Em 615/665. To determine the potency (IC50) and extent of MED1 repulsion, TR-FRET ratios were normalized to the average ratio of DMSO control wells (0%) and to the average minimum ratio for positive control compound (GW9662 (2-chloro-5-nitrobenzanilide); defined as 100%) in CDD Vault and analyzed using the Levenberg-Marquardt algorithm.

[2] = molecular target: T2, PPARG/RXRA LBD heterodimer (Homo sapiens, UniProt P37231); assay: PPARγ-NCOR1 recruitment assay (TR-FRET); format: binding; details: NCOR1 ID2 peptide, 80 nM Rosiglitazone, 3 hours, read-out: PPARG - NCOR recruitment assay EC50
T2 construct: 2 nM WT PPARG LBD (e. coli expressed, His-TEV-Q203-Y477); fused on or other part: N-terminal His tag with TEV site on the PPARG LBD
Experimental: Compound potency (EC50) and maximal extent of NCOR1 recruitment to PPARG were assessed a TR-FRET binding assay measuring association of a biotinylated NCOR1 ID2 peptide (Biotin-[…]-amide) to PPARG/RXRA LBD heterodimer. Specifically, a 20 microliters of TR-FRET master mix consisting of 2 nM WT PPARG LBD (e. coli expressed, His-TEV-Q203-Y477; Uniprot ID P37231-2), 2 nM WT RXRA LBD or mutant S427F RXRA LBD (e. coli expressed, Flag-TEV-E228-T462; […]. Mixtures were incubated for 3 hours and read in an EnVision plate reader (Perkin Elmer) with Ex/Em 615/665. To determine the potency (EC50) and extent of NCOR1 recruitment, TR-FRET ratios were normalized to the average ratio of DMSO control wells (0%) and to the average maximum ratio for positive control compound (T0070907 (2-chloro-5-nitro-N-4-pyridinyl-benzamide); defined as 100%) in CDD Vault and analyzed using the Levenberg-Marquardt algorithm.
T2 sequence (O75376 2251-2273 limits assumed, one chain of several, further chain): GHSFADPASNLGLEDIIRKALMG

[3] = test system: ANGPTL4, a PPARG target gene, in HT1197 (RXRA S427F mutation) cells; assay: Bladder cancer pharmacodynamic assay (HT1197 cell assay, qPCR of PPARG target genes); format: cell-based; details: Homo sapiens; for inhibition at 0.1 µM: 100 nM compound, 24 hours, relative to DMSO control; for EC50: 24 hours treatment, qPCR
Experimental: 5637 (PPARG amplified) and HT1197 (RXRA S427F mutation) cells were used for assessment of modulation of PPARG target genes using quantitative PCR. Cells were treated for 24 hours with PPARG inverse agonists prior to analysis of FABP4 (IDT, Cat: Hs.PT 58.20106818) and ANGPTL4 (IDT, Cat: Hs.PT 58.25480012) expression, with expression of the housekeeping gene TBP (IDT, Cat: Hs.PT 58v.39858774) used to normalize expression across samples. Quantitative PCR was performed using an ABI QuantStudio 7 Flex Reaction system. Data were analyzed and reported relative to DMSO control using the comparative Ct method (ΔΔCt).

| SMILES | EC50 [1] [nM] | EC50 [2] [nM] | inhibition at 0.1 µM [3] [%] | EC50 [3] [nM] |
| --- | --- | --- | --- | --- |
| CS(=O)(=O)c1ccc(C#N)cc1C(=O)Nc1ccc(C#N)c(Cl)c1 [Example 1, N-(3-chloro-4-cyanophenyl)-5-cyano-2-(methylsulfonyl)benzamide] | 100 to 1000 | 100 to 1000 | 86 | 5.2 |
| N#Cc1ccc(SC(F)(F)F)c(C(=O)Nc2cc(F)c(-c3ccc(C(F)F)nc3)c(F)c2)c1 [Example 2, 5-cyano-N-(4-(6-(difluoromethyl)pyridin-3-yl)-3,5-difluorophenyl)-2-((trifluorometh-yl)thio)benzamide] | 100 to 1000 | 100 to 1000 | 83 |  |
| Cc1ccc(-c2c(F)cc(NC(=O)c3cc(C#N)ccc3SC(F)(F)F)cc2F)cn1 [Example 3, 5-cyano-N-(3,5-difluoro-4-(6-methylpyridin-3-yl)phenyl)-2-((trifluorometh-yl)thio)benzamide] | 100 to 1000 | 10 to 100 | 57 |  |
| Cc1ccc(-c2c(F)cc(NC(=O)c3cc(C#N)ccc3S(C)(=O)=O)cc2F)cn1 [Example 4, 5-cyano-N-(3,5-difluoro-4-(6-methylpyridin-3-yl)phenyl)-2-(methylsulfonyl) benzamide] | 100 to 1000 | 100 to 1000 | 74 |  |
| CS(=O)(=O)c1ccc(C#N)cc1C(=O)Nc1cc(F)cc(F)c1 [Example 5, 5-cyano-N-(3,5-difluorophenyl)-2-(methylsulfonyl) benzamide] | 1000 to 10000 | 100 to 1000 | 40 |  |
| N#Cc1ccc(SC(F)(F)F)c(C(=O)Nc2cc(F)cc(F)c2)c1 [Example 6, 5-cyano-N-(3,5-difluorophenyl)-2-(trifluorometh-ylsulfanyl)ben-zamide] | 100 to 1000 | 100 to 1000 | 54 |  |
| CS(=O)(=O)c1ccc(C#N)cc1C(=O)Nc1ccc(C#N)c(C(F)(F)F)c1 [Example 7, 5-cyano-N-(4-cyano-3-(trifluorometh-yl)phenyl)-2-(methylsulfonyl) benzamide] | 1000 to 10000 | 1000 to 10000 | 77 |  |
| CS(=O)(=O)c1ccc(C#N)cc1C(=O)Nc1cc(Cl)cc(Cl)c1 [Example 8, 5-cyano-N-(3,5-dichlorophenyl)-2-(methylsulfonyl) benzamide] | 100 to 1000 | 100 to 1000 | 41 |  |
| CS(=O)(=O)c1ccc(C#N)cc1C(=O)Nc1ccnc(C(F)(F)F)c1 [Example 9, 5-cyano-2-(methylsulfonyl)-N-(2-(trifluorometh-yl)pyridin-4-yl)benzamide] | 1000 to 10000 | 1000 to 10000 | 64 |  |
| CS(=O)(=O)c1ccc(C#N)cc1C(=O)Nc1ccc(C(F)(F)F)c(C#N)c1 [Example 10, 5-cyano-N-(3-cyano-4-(trifluorometh-yl)phenyl)-2-(methylsulfonyl) benzamide] | 100 to 1000 | 100 to 1000 | 48 |  |
| CN1Cc2ccc(-c3c(F)cc(NC(=O)c4cc(C#N)ccc4S(C)(=O)=O)cc3F)cc2C1=O [Example 11, 5-cyano-N-(3,5-difluoro-4-(2-methyl-3-oxoisoindolin-5-yl)phenyl)-2-(methylsulfonyl) benzamide] | 100 to 1000 | 10 to 100 | 79 | 1.3 |
| CN1CCN(c2ccc(NC(=O)c3cc(C#N)ccc3S(C)(=O)=O)cn2)CC1 [Example 12, 5-cyano-N-(6-(4-methylpiperazin-1-yl)pyridin-3-yl)-2-(methylsulfonyl) benzamide] | > 10000 | > 10000 | 25 |  |
| CS(=O)(=O)c1ccc(C#N)cc1C(=O)Nc1cc(F)c(-c2ccc(C(F)F)nc2)c(F)c1 [Example 13, 5-cyano-N-(4-(6-(difluoromethyl)pyridin-3-yl)-3,5-difluorophenyl)-2-(methylsulfonyl) benzamide] | 100 to 1000 | 100 to 1000 | 80 | 2.9 |
| CS(=O)(=O)c1ccc(C#N)cc1C(=O)Nc1ccc2cnccc2c1 [Example 14, 5-cyano-N-(isoquinolin-6-yl)-2-(methylsulfonyl) benzamide] | 1000 to 10000 | 1000 to 10000 | 35 |  |
| N#Cc1ccc(SC(F)(F)F)c(C(=O)Nc2cc(Cl)cc(Cl)c2)c1 [Example 15, 5-cyano-N-(3,5-dichlorophenyl)-2-((trifluorometh-yl)thio)benzamide] | 10 to 100 | 10 to 100 | 46 |  |
| CS(=O)(=O)c1ccc(C#N)cc1C(=O)Nc1cc(F)cc(Oc2ccc(Cl)cc2)c1 [Example 16, N-(3-(4-chlorophenoxy)-5-fluorophenyl)-5-cyano-2-(methylsulfonyl) benzamide] | 10 to 100 | 10 to 100 |  |  |
| CS(=O)(=O)c1ccc(C#N)cc1C(=O)Nc1ccc(F)c(C#N)c1 [Example 17, 5-cyano-N-(3-cyano-4-fluorophenyl)-2-(methylsulfonyl) benzamide] | 1000 to 10000 | 1000 to 10000 | 43 |  |
| CC(=O)N1CCN(c2ccc(NC(=O)c3cc(C#N)ccc3S(C)(=O)=O)cn2)CC1 [Example 18, N-(6-(4-acetylpiperazin-1-yl)pyridin-3-yl)-5-cyano-2-(methylsulfonyl) benzamide] | > 10000 | > 10000 | 13 |  |
| Cc1cc(NC(=O)c2cc(C#N)ccc2S(C)(=O)=O)cc(C)n1 [Example 19, 5-cyano-N-(2,6-dimethylpyridin-4-yl)-2-(methylsulfonyl) benzamide] | > 10000 | > 10000 | 20 |  |
| CS(=O)(=O)c1ccc(C#N)cc1C(=O)Nc1ccn2nccc2c1 [Example 20, 5-cyano-2-(methylsulfonyl)-N-(pyrazolo[1,5-a]pyridin-5-yl)benzamide] | > 10000 | > 10000 | 0 |  |
| CS(=O)(=O)c1ccc(C#N)cc1C(=O)Nc1ccc(C#N)c(F)c1 [Example 21, 5-cyano-N-(4-cyano-3-fluorophenyl)-2-(methylsulfonyl) benzamide] | 1000 to 10000 | 1000 to 10000 | 79 |  |
| CS(=O)(=O)c1ccc(C#N)cc1C(=O)Nc1ccc2ccncc2c1 [Example 22, 5-cyano-N-(isoquinolin-7-yl)-2-(methylsulfonyl) benzamide] | > 10000 | > 10000 | 0 |  |
| CS(=O)(=O)c1ccc(C#N)cc1C(=O)Nc1cc(F)c(-c2ccc3c(c2)C(=O)NC3)c(F)c1 [Example 23, 5-cyano-N-(3,5-difluoro-4-(3-oxoisoindolin-5-yl)phenyl)-2-(methylsulfonyl) benzamide] | 10 to 100 | 10 to 100 | 19 |  |
| N#Cc1ccc(SC(F)(F)F)c(C(=O)Nc2ccnc(C(F)(F)F)c2)c1 [Example 24, 5-cyano-N-(2-(trifluorometh-yl)pyridin-4-yl)-2-((trifluorometh-yl)thio)benzamide] | 1000 to 10000 | 1000 to 10000 | 49 |  |
